Reference: US20070128217A1 (priority 2003, published 2007)

How the values were obtained:
[1] = system: antibodies in sera from SARS patients (sera 1a, 1b, 2, 6, 37, 62, London, SARS-yellow, SARS-green); assay type: binding, human; set-up: Binding of serum 6 to linear peptides of protein X1 of SARS-CoV Urbani / Binding of serum 37 to linear peptides of protein X1 of SARS-CoV Urbani / Binding of serum 6 to looped/cyclic peptide (PEPSCAN-ELISA) / Binding of serum 37 to looped/cyclic peptide (PEPSCAN-ELISA) / Binding of serum 37 to looped/cyclic peptides of protein X1 of SARS-CoV Urbani / Binding of serum 6 to linear peptides of protein X2 / Binding of serum 37 to linear peptides of protein X2 / Binding of serum 37 to looped/cyclic peptides of protein X2 of SARS-CoV Urbani / Binding of serum 6 to linear peptides of protein M of SARS-CoV Urbani / Binding of serum 37 to linear peptides of protein M of SARS-CoV Urbani / Binding of serum 6 to looped/cyclic peptides of protein M of SARS-CoV Urbani / Binding of serum 37 to looped/cyclic peptides of protein M of SARS-CoV Urbani / Binding of serum 6 to linear peptides of protein X3 of SARS-CoV Urbani / Binding of serum 37 to linear peptides of protein X3 of SARS-CoV Urbani / Binding of serum 37 to looped/cyclic peptides of protein X3 of SARS-CoV Urbani / Binding of serum 6 to linear peptides of protein X4 of SARS-CoV Urbani / Binding of serum 37 to linear peptides of protein X4 of SARS-CoV Urbani / Binding of serum 37 to looped/cyclic peptides of protein X4 of SARS-CoV Urbani / Binding of serum 6 to linear peptides of protein X5 of SARS-CoV Urbani / Binding of serum 37 to linear peptides of protein X5 of SARS-CoV Urbani / Binding of serum 37 to looped/cyclic peptides of protein X5 of SARS-CoV Urbani / Binding of serum 6 to linear peptides of protein N of SARS-CoV Urbani / Binding of serum 37 to linear peptides of protein N of SARS-CoV Urbani / Binding of serum 6 to linear peptide (PEPSCAN-ELISA) / Binding of serum 1a to looped/cyclic peptides of protein N of SARS-CoV Urbani / Binding of serum 1b to looped/cyclic peptides of protein N of SARS-CoV Urbani / Binding of serum 2 to looped/cyclic peptides of protein N of SARS-CoV Urbani / Binding of serum 6 to looped/cyclic peptides of protein N of SARS-CoV Urbani / Binding of serum 37 to looped/cyclic peptides of protein N of SARS-CoV Urbani / Binding of serum 62 to looped/cyclic peptides of protein N of SARS-CoV Urbani / Binding of serum London to looped/cyclic peptides of protein N of SARS-CoV Urbani / Binding of serum SARS-green to looped/cyclic peptides of protein N of SARS-CoV Urbani: unit not given here
[2] = system: control sera (pooled serum of ten healthy LUMC hospital workers; commercial negative donor pooled serum from the Dutch bloodbank); assay type: binding, human
[3] = system: rabbit serum obtained by immunizing a rabbit with the SARS-CoV strain Frankfurt 1; assay type: binding; set-up: Binding of a rabbit serum to linear peptides / Binding of a rabbit serum to looped peptides / Rabbit serum linear peptides / Rabbit serum looped peptides / Binding of a rabbit serum to linear peptides of protein N of SARS-CoV Urbani (Rabbit serum linear peptides) / Binding of a rabbit serum to looped/cyclic peptides of protein N of SARS-CoV Urbani (Rabbit serum looped peptides): unit not given here

Sequence | Binding of serum 1a to linear peptides of protein X2 [1] | Binding of serum 1a to looped/cyclic peptides of protein X2 of SARS-CoV Urbani [1] | Binding of serum 1b to linear peptides of protein X2 [1] | Binding of serum 1b to looped/cyclic peptides of protein X2 of SARS-CoV Urbani [1] | Binding of serum 2 to linear peptides of protein X2 [1] | Binding of serum 2 to looped/cyclic peptides of protein X2 of SARS-CoV Urbani [1] | Binding of serum 6 to linear peptides of protein X2 [1] | Binding of serum 6 to looped/cyclic peptides of protein X2 of SARS-CoV Urbani [1] | Binding of serum 37 to linear peptides of protein X2 [1] | Binding of serum 37 to looped/cyclic peptides of protein X2 of SARS-CoV Urbani [1] | Binding of serum 62 to looped/cyclic peptides of protein X2 of SARS-CoV Urbani [1] | Binding of serum London to looped/cyclic peptides of protein X2 of SARS-CoV Urbani [1] | Binding of serum SARS-green to looped/cyclic peptides of protein X2 of SARS-CoV Urbani [1] | Binding of serum SARS-yellow to looped/cyclic peptides of protein X2 of SARS-CoV Urbani [1] | Binding of Control Serum Blood-Bank to Looped peptides [2] | Binding of Control serum Blood-bank to linear peptides [2] | Binding of Control serum LUMC to linear peptides [2] | Binding of Control serum LUMC to looped peptides [2] | Binding of a rabbit serum to linear peptides [3] | Binding of a rabbit serum to looped peptides [3] | further results
KVTAFQHQNSKKTTK | 0.3 | 0.2 | 0.2 | 0.2 | 0.2 | 0.0 | 0.2 | 0.0 | 0.3 | 0.2 | 0.3 | 0.1 | 0.0 | 0.1 | 0.3 | 0.2 | 0.3 | 0.3 | 0.6 | 0.2 | Binding of serum 62 to linear peptides of protein X2 [1]: 0.2; Binding of serum London to linear peptides of protein X2 [1]: 0.1; Binding of serum SARS-green to linear peptides of protein X2 [1]: 0.0; Binding of serum SARS-yellow to linear peptides of protein X2 [1]: 0.4
KYTQSTALQELLIQQ | 0.7 | 0.8 | 0.6 | 1.0 | 0.4 | 0.7 | 0.5 | 0.7 | 0.6 | 0.8 | 1.0 | 0.5 | 0.9 | 0.8 | 0.9 | 0.6 | 0.5 | 1.0 | 0.4 | 0.4 | Binding of serum 62 to linear peptides of protein X2 [1]: 0.6; Binding of serum London to linear peptides of protein X2 [1]: 0.5; Binding of serum SARS-green to linear peptides of protein X2 [1]: 0.6; Binding of serum SARS-yellow to linear peptides of protein X2 [1]: 0.6
LACLCKHKKVSTNLC | – | 0.3 | – | 0.3 | – | 0.2 | – | 0.2 | – | 0.3 | 0.4 | 0.2 | 0.2 | 0.3 | 0.3 | 0.8 | 0.7 | 0.4 | 0.3 | 0.3 | Recognition of the peptide by sera of SARS-CoV infected individuals, and form (linear, looped/cyclic) in which it is recognized [1]: recognized in linear form
